“And” between values parts separate entries of the source, which are not always exact repeats. Equal values may be shown once.
What was measured:
HSV-2 [1] = test: Anti-HSV-2 replication assay in Vero cells, titer by plaque assay; type: cell-based, herpes simplex virus 2; conditions: for Anti-HSV-2 Log10 suppression 5 μM / Anti-HSV-2 Log10 suppression 50 μM: relative to DMSO
Procedure, shortened: (§1)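 Well lysates titered by plaque assay on Vero cells versus DMSO controls; EC50 by non-linear fit from serial dilutions starting at 50 μM.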

HSV-2 [2] = test: HSV-2 replication inhibition in primary human foreskin fibroblasts; type: cell-based, herpes simplex virus 2; conditions: for Replication inhibition HSV-2 5 μM / Replication inhibition HSV-2 50 μM / EC50: HFF cells; for Replication inhibition HSV-2 5 μM / Replication inhibition HSV-2 50 μM: relative to DMSO-treated control
Procedure, shortened: (§2)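 Confluent primary HFF monolayers infected at MOI 0.1 with compound present (50 μM and 5 μM final), 1 h at 37 °C; inoculum removed, compound re-added and incubated a further 23 h. Whole-well virus yield at 24 h post-infection titrated by plaque assay on Vero cells; DMSO diluent controls included. EC50 from serial dilutions starting at 50 μM, non-linear curve fit.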

human RNaseH1 = molecular target: T1, human RNaseH1 (Homo sapiens, UniProt O60930); test: Biochemical inhibition of human RNaseH1 (oligonucleotide-directed RNA cleavage assay); conditions: for Anti-Human RNaseH1: compounds at 60, 20 or 10 μM
T1 construct: hexahistidine; made in house; host or cells: E. coli
T1 sequence (O60930 1-286): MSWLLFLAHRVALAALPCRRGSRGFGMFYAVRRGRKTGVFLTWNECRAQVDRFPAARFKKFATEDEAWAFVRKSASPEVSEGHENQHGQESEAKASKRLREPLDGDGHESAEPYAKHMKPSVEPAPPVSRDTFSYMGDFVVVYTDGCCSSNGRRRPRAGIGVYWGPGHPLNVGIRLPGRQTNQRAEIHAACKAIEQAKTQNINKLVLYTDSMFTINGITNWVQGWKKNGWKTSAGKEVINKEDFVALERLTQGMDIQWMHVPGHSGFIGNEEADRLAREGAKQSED
Procedure, shortened: (§3)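 A DNA oligonucleotide was annealed to internally ^32P-labeled RNA, and the heteroduplex was incubated with enzyme alongside compounds at 60, 20 or 10 μM. Cleavage products were resolved by electrophoresis and detected by autoradiography, then quantified against DMSO vehicle reactions.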

HSV-1 [3] = test: Anti-HSV-1 replication assay in Vero cells, titer by plaque assay; type: cell-based, herpes simplex virus 1; conditions: for Anti-HSV-1 Log10 suppression 5 μM / Anti-HSV-1 Log10 suppression 50 μM / EC50: moi 0.1, 24 h; for Anti-HSV-1 Log10 suppression 5 μM / Anti-HSV-1 Log10 suppression 50 μM: relative to DMSO
Procedure, shortened: as §1

HSV-1 [4] = test: HSV-1 replication inhibition in primary human foreskin fibroblasts; type: cell-based, herpes simplex virus 1; conditions: HFF cells; for Replication inhibition HSV-1 5 μM / Replication inhibition HSV-1 50 μM: relative to DMSO-treated control
Procedure, shortened: as §2

HBV RNaseH = molecular target: T2, HBV RNaseH (Hepatitis B virus genotype A2 subtype adw2, UniProt P03159); test: Biochemical inhibition of HBV RNaseH (oligonucleotide-directed RNA cleavage assay); conditions: compounds at 60, 20 or 10 μM
T2 construct: One of the inventors recently produced active recombinant HBV RNase H; hexahistidine; made in house; host or cells: E. coli
T2 sequence (P03159 693-845): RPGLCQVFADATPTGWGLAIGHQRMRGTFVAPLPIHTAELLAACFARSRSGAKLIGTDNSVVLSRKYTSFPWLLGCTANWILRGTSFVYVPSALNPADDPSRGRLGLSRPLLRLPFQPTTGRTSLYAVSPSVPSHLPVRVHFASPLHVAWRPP
Procedure, shortened: as §3

Vero cells = test: MTT mitochondrial toxicity assay in Vero cells; type: cell-based; conditions: 24 h; read-out: Vero cell toxicity MTT CC50
HCMV strain AD169 = test: HCMV plaque reduction assay in HFFs; type: cell-based, human cytomegalovirus; conditions: Human betaherpesvirus 5, AD169, 240 h, 10 days, read-out: EC50 against HCMV, plaque reduction assay
Description: HCMV plaque reduction EC50 and toxicity assays. Low passage primary HFFs were infected with HCMV strain AD169 in the presence of serial dilutions of the compounds from 0.032 to 100 μM. Ten days later the monolayers were stained with 1% neutral red solution in PBS. After rinsing, plaques were counted using a stereomicroscope and the EC50 was interpolated from the data. Cytotoxicity was measured using a plate-based assay in which compounds were added to HFFs at 0.032 to 100 μM. At the end of the incubation period, plates were stained for 1 h with a neutral red solution in PBS. The stain was then removed, the plates rinsed in PBS and dried, and dye internalized by viable cells was determined at OD550. CC50 values were interpolated from the data.
Compounds #41, 46, 49, 55, 56, and 59 and the FDA-approved, anti-HCMV drug ganciclovir were subsequently evaluated with plaque reduction and toxicity assays in HFFs. HFFs were infected with HCMV in the presence of serial dilutions of the compounds. After 10 days the cultures were stained with neutral red and plaques were counted. Compound cytotoxicity for uninfected cells was determined in the same manner except that neutral red uptake by viable cells was measured by optical density. […] The TI values for the five NTS inhibitors of HCMV ranged from 5 for compound #46 to 17 for #55 and 59. Therefore, NTS inhibitors can suppress HCMV replication in addition to inhibiting the HSVs.

[5] = Human alphaherpesvirus 1, Vero, 24 h

Compound	Anti-HSV-2 Log10 suppression 5 μM (HSV-2 [1]; 5 μM, moi 0.1, 24 h)	Anti-HSV-2 Log10 suppression 50 μM (HSV-2 [1]; moi 0.1, 24 h)	Replication inhibition HSV-2 5 μM (HSV-2 [2]; 5 μM)	Replication inhibition HSV-2 50 μM (HSV-2 [2])	EC50 (HSV-2 [2]; Human alphaherpesvirus 2)	Anti-Human RNaseH1 (human RNaseH1)	Anti-HSV-1 Log10 suppression 5 μM (HSV-1 [3])	Anti-HSV-1 Log10 suppression 50 μM (HSV-1 [3])	EC50 (HSV-1 [3]; [5])	Replication inhibition HSV-1 5 μM (HSV-1 [4])	Replication inhibition HSV-1 50 μM (HSV-1 [4])	EC50 (HSV-1 [4]; Human alphaherpesvirus 1)	Anti-HBV RNaseH (HBV RNaseH)	further results
Nc1nc2c(ncn2COCCO)c(=O)[nH]1 [ACV, Acyclovir, reference compound]	3.91 log10	5.25 log10	4.01 log10	6.27 log10	120 nM	− (no inhibition at 60 μM)	4.49 log10	5.85 log10	210 nM	5.25 log10	6.69 log10	120 nM	− (no inhibition at 60 μM)	Control of HSV-2 replication after high moi infection (HSV-2 [1]; moi 5, 5 μM, 24 h): efficiently controlled virus replication; Control of HSV-1 replication after high moi infection (HSV-1 [3]; moi 5, 5 μM, 24 h): efficiently controlled virus replication
CCOc1ccc(-c2c3cc(O)c(=O)cc-3oc3cc(O)c(O)cc23)cc1 [Compound 30]	3.69 log10	4.55 log10	2.04 log10	6.68 log10	–	+++ (inhibition at 10 μM)	1.39 log10	4.02 log10	–	3.22 log10	5.23 log10	–	+++ (inhibition at 10 μM)	Fold more active against HSV-2 than HSV-1 (HSV-2 [1]; 5 μM): > 100 fold; EC50 (HSV-2 [1]; moi 0.1, 24 h): 3930 nM; Fold less effective inhibition of HSV-2 in HFF cells than in Vero cells (HSV-2 [2]; 5 μM): ~45 fold; EC50 (HSV-2 [2]): 520 nM; Concentration giving inhibition of purified human RNaseH 1 (human RNaseH1): < 60 µM; CC50 (Vero cells): > 100000 nM; EC50 (HSV-1 [3]): 5930 nM and 4200 nM; EC50 (HSV-1 [4]): 320 nM
Cc1cc(C2CCCCC2)n(O)c(=O)c1 [Compound 41, Ciclopirox, reference compound]	–	5.25 log10	5.21 log10	4.97 log10	1000 nM	+ (inhibition at 60 μM)	–	5.23 log10	270 nM	5.06 log10	5.57 log10	140 nM	− (no inhibition at 60 μM)	EC50 (HSV-2 [1]; Human alphaherpesvirus 2, moi 0.1, 24 h): 450 nM; Inhibition of HSV-2 replication (in words) (HSV-2 [1]; primary screening): strong inhibitor; Suppression of HSV-2 replication, ciclopirox versus its salt (HSV-2 [2]; HFFs, various concentrations, 24 hours): equivalent extent; EC50 (HCMV strain AD169): 330 nM; Inhibition of HSV-1 replication (in words) (HSV-1 [3]; primary screening): strong inhibitor
